Laboratory results as given in PubChem BioAssay AID488892 (Sanford-Burnham Center for Chemical Genomics, 2010).
Activity calls are given as the source filed them.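 Rule for the calls: active = mean IC50 below a set limit; inactive = the rest.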

What follows are compounds tested against Alkaline phosphatase, placental type (Homo sapiens) (UniProt P05187) (assay: inhibition of placental alkaline phosphatase – biochemical, uHTS hits, luminescence, selectivity assay for human IAP inhibitor project, dose response (AID 488892)). Details: purified PLAP, CDP-Star luminescence, 30 min.

In order of rising IC50:
1. O=c1c2cc(O)c(O)cc2oc2cc(O)c(C3OC(CO)C(O)C(O)C3O)c(O)c12 (stereo not drawn)  2.71 µM
2. CNc1nnc(-c2cc3ccccc3oc2=O)s1  4.1 µM
3. N#C/C(=C\c1ccc(O)c(O)c1)C(=O)c1ccc(O)c(O)c1  5.59 µM
4. O=C1Nc2ccccc2/C1=N\N=C\c1ccc(O)c(O)c1  8.64 µM
5. C=CCN1C(=O)/C(=C\C=C2\N(C)c3ccccc3C2(C)C)SC1=S  10.6 µM
6. CC[n+]1c(/C=C/c2c[nH]c3ccccc23)ccc2cc(C)ccc21  10.8 µM
7. COc1ccc2nc3cc(Cl)ccc3c(Nc3cc(CN4CCCC4)c(O)c(CN4CCCC4)c3)c2n1  11.5 µM
8. COc1ccc(C=C2C(=O)c3ccccc3C2=O)cc1O  14.7 µM
9. COc1cc(/C=C(\C#N)C(=O)c2ccc(O)c(O)c2)cc(I)c1O  15.5 µM
10. Oc1ccc(N=Nc2c(O)ccc3ccccc23)cc1  18.4 µM
11. O=C(NN1C(=O)/C(=C/c2ccc(O)c([N+](=O)[O-])c2)SC1=S)c1ccccc1Cl  27.9 µM
12. CN(C)c1ccc(N=Nc2ccccc2Br)cc1  27.9 µM
13. CCN1/C(=C\c2ccc3ccccc3[n+]2CC)Sc2cc(C)ccc21  28.2 µM
14. Nc1ccc(-c2c3ccc(=O)cc-3oc3cc(O)ccc23)cc1C(=O)O  29.9 µM
15. CN(C)c1ccc2nc3c(=O)[nH]c(=O)nc-3n(CC(O)C(O)C(O)CO)c2c1 (stereo not drawn)  30.3 µM
16. c1ccc(CSCCc2ccncc2)cc1  30.3 µM
17. CCOc1cc(/C=C2/C(=O)ON=C2C)cc(Br)c1O  35.1 µM
18. CC1=NN(Cc2ccccc2)C(=O)/C1=C\c1ccc(N(C)C)cc1  37.8 µM
19. CC(C)=CCc1c(O)ccc2c1OC(c1ccc(O)c(O)c1)CC2=O (stereo not drawn)  44.8 µM
20. CCN(CC)c1ccc(N=Nc2nn(C)c(C)c2[N+](=O)[O-])cc1  49 µM
21. O=C(/C=C/c1ccccc1O)c1ccco1  75.4 µM

In the case of `O=C1C2C3C=CC(C3)C2C(=O)N1c1n[nH]c(-c2cccnc2)n1` (stereo not drawn), the IC50 is reported as > 100 µM (inactive).
With `C/C(=N/Nc1ccccc1[N+](=O)[O-])c1ccc([N+](=O)[O-])cc1` the IC50 was > 100 µM (inactive).
